What was measured:
Type in all cases: functional
Rattus norvegicus [1] = test: % protection measured by glutamate oxaloacetate transaminase level, against thioacetamide-induced hepatic damage in rats, at 6 mg/Kg peroral dose
Rattus norvegicus [2] = test: % protection of glutamate pyruvate transaminase level, against thioacetamide-induced hepatic damage in rats, at 6 mg/Kg peroral dose
Rattus norvegicus [3] = test: Tested for hepatoprotective activity against thioacetamide-induced hepatic damage in rat at 6 mg/kg, expressed as % protection afforded in ALP levels
Rattus norvegicus [4] = test: Tested for hepatoprotective activity against thioacetamide-induced hepatic damage in rat at 6 mg/kg, expressed as % protection afforded in GIDH levels
Rattus norvegicus [5] = test: Tested for hepatoprotective activity against thioacetamide-induced hepatic damage in rat at 6 mg/kg, expressed as % protection afforded in ACP levels

## N#Cc1c(-c2ccccc2)cc(S)sc1=N
Rattus norvegicus [1]
  Protection: 41%
Rattus norvegicus [2]
  Protection: 35%
Rattus norvegicus [3]
  Protection: 30%
Rattus norvegicus [4]
  Protection: 47%
Rattus norvegicus [5]
  Protection: 47%

## CCN(CC)C(=S)SC(C(=O)c1ccc(Br)cc1)=C1SCCCS1
Rattus norvegicus [1]
  Protection: 38%
Rattus norvegicus [2]
  Protection: 0%
Rattus norvegicus [3]
  Protection: 0%
Rattus norvegicus [4]
  Protection: 0%
Rattus norvegicus [5]
  Protection: 20%

## CCOC(=O)C(C(=O)c1ccccc1)=C1SCCCS1
Rattus norvegicus [1]
  Protection: 35%
Rattus norvegicus [2]
  Protection: 45%
Rattus norvegicus [3]
  Protection: 0%
Rattus norvegicus [4]
  Protection: 23%
Rattus norvegicus [5]
  Protection: 7%

## CCN(CC)C(=S)SC(C(=O)c1ccc(C)cc1)=C1SCCS1
Rattus norvegicus [1]
  Protection: 56%
Rattus norvegicus [2]
  Protection: 0%
Rattus norvegicus [3]
  Protection: 0%
Rattus norvegicus [4]
  Protection: 93%
Rattus norvegicus [5]
  Protection: 70%

## N#Cc1c(SCCS)n[nH]c1N
Rattus norvegicus [1]
  Protection: 0%
Rattus norvegicus [2]
  Protection: 0%
Rattus norvegicus [3]
  Protection: 0%
Rattus norvegicus [4]
  Protection: 0%
Rattus norvegicus [5]
  Protection: 9%

## O=C(c1ccc(Cl)cc1)c1sc(=S)sc1SCc1ccccc1
Rattus norvegicus [1]
  Protection: 80%
Rattus norvegicus [2]
  Protection: 39%
Rattus norvegicus [3]
  Protection: 3%
Rattus norvegicus [4]
  Protection: 15%
Rattus norvegicus [5]
  Protection: 4%

## COC(=O)C(C(C)=O)=C1SCCS1
Rattus norvegicus [1]
  Protection: 7%
Rattus norvegicus [2]
  Protection: 0%
Rattus norvegicus [3]
  Protection: 0%
Rattus norvegicus [4]
  Protection: 0%
Rattus norvegicus [5]
  Protection: 9%

## SILYMARIN
Rattus norvegicus [1]
  Protection: 50.1%
Rattus norvegicus [2]
  Protection: 47.2%
Rattus norvegicus [3]
  Protection: 47%
Rattus norvegicus [4]
  Protection: 39.8%
Rattus norvegicus [5]
  Protection: 43.6%

## CC(=O)C(C(C)=O)=C1SCCCS1
Rattus norvegicus [1]
  Protection: 27%
Rattus norvegicus [2]
  Protection: 0%
Rattus norvegicus [3]
  Protection: 67%
Rattus norvegicus [4]
  Protection: 0%
Rattus norvegicus [5]
  Protection: 0%

## CC(C)OC(=O)C(C(=O)OC(C)C)=C1SCCS1 [ISOPROTHIOLANE]
Rattus norvegicus [1]
  Protection: 92%
Rattus norvegicus [2]
  Protection: 77%
Rattus norvegicus [3]
  Protection: 0%
Rattus norvegicus [4]
  Protection: 0%
Rattus norvegicus [5]
  Protection: 0%

## N#CC(C(=O)c1ccccc1)=C1SCCCS1
Rattus norvegicus [1]
  Protection: 0%
Rattus norvegicus [2]
  Protection: 0%
Rattus norvegicus [3]
  Protection: 0%
Rattus norvegicus [4]
  Protection: 0%
Rattus norvegicus [5]
  Protection: 0%

## COC(=O)C(C(C)=O)=C1SCCCS1
Rattus norvegicus [1]
  Protection: 66%
Rattus norvegicus [2]
  Protection: 0%
Rattus norvegicus [3]
  Protection: 14%
Rattus norvegicus [4]
  Protection: 68%
Rattus norvegicus [5]
  Protection: 0%

## O=C(C(C(=O)c1ccccc1)=C1SCCS1)c1ccccc1
Rattus norvegicus [1]
  Protection: 0%
Rattus norvegicus [2]
  Protection: 0%
Rattus norvegicus [3]
  Protection: 34%
Rattus norvegicus [4]
  Protection: 0%
Rattus norvegicus [5]
  Protection: 8%

## CCN(CC)C(=S)SC(C(=O)c1ccc(Cl)cc1)=C1SCCS1
Rattus norvegicus [1]
  Protection: 46%
Rattus norvegicus [2]
  Protection: 0%
Rattus norvegicus [3]
  Protection: 0%
Rattus norvegicus [4]
  Protection: 5%
Rattus norvegicus [5]
  Protection: 27%

## N#CC(C(=O)c1ccccc1)=C1SCCS1
Rattus norvegicus [1]
  Protection: 0%
Rattus norvegicus [2]
  Protection: 0%
Rattus norvegicus [3]
  Protection: 31%
Rattus norvegicus [4]
  Protection: 0%
Rattus norvegicus [5]
  Protection: 0%

## CCOC(=O)C(C#N)=C1SCCCS1
Rattus norvegicus [1]
  Protection: 84%
Rattus norvegicus [2]
  Protection: 59%
Rattus norvegicus [3]
  Protection: 76%
Rattus norvegicus [4]
  Protection: 0%
Rattus norvegicus [5]
  Protection: 0%

## N#CC(C(=O)c1ccc(Cl)cc1)=C1SCCCS1
Rattus norvegicus [1]
  Protection: 63%
Rattus norvegicus [2]
  Protection: 0%
Rattus norvegicus [3]
  Protection: 0%
Rattus norvegicus [4]
  Protection: 0%
Rattus norvegicus [5]
  Protection: 0%

## CC(=O)C(C(C)=O)=C1SCCS1
Rattus norvegicus [1]
  Protection: 67%
Rattus norvegicus [2]
  Protection: 40%
Rattus norvegicus [3]
  Protection: 0%
Rattus norvegicus [4]
  Protection: 8%
Rattus norvegicus [5]
  Protection: 0%

## N#CC(C(=O)c1ccc(Cl)cc1)=C1SCCS1
Rattus norvegicus [1]
  Protection: 0%
Rattus norvegicus [2]
  Protection: 0%
Rattus norvegicus [3]
  Protection: 0%
Rattus norvegicus [4]
  Protection: 0%
Rattus norvegicus [5]
  Protection: 0%

## CCN(CC)C(=S)SC(C(=O)c1ccc(Cl)cc1)=C1SCCCS1
Rattus norvegicus [1]
  Protection: 85%
Rattus norvegicus [2]
  Protection: 0%
Rattus norvegicus [3]
  Protection: 37%
Rattus norvegicus [4]
  Protection: 26%
Rattus norvegicus [5]
  Protection: 6%

## CCOC(=O)C(C(=O)c1ccccc1)=C1SCCS1
Rattus norvegicus [1]
  Protection: 0%
Rattus norvegicus [2]
  Protection: 0%
Rattus norvegicus [3]
  Protection: 0%
Rattus norvegicus [4]
  Protection: 0%
Rattus norvegicus [5]
  Protection: 29%

## CCOC(=O)C(C#N)=C1SCCS1
Rattus norvegicus [1]
  Protection: 74%
Rattus norvegicus [2]
  Protection: 73%
Rattus norvegicus [3]
  Protection: 11%
Rattus norvegicus [4]
  Protection: 46%
Rattus norvegicus [5]
  Protection: 35%

## CCOC(=O)C(C(=O)OCC)=C1SCCS1
Rattus norvegicus [1]
  Protection: 0%
Rattus norvegicus [2]
  Protection: 0%
Rattus norvegicus [3]
  Protection: 0%
Rattus norvegicus [4]
  Protection: 2%
Rattus norvegicus [5]
  Protection: 39%

— ChEMBL document CHEMBL1127911, “Synthesis of sulphur heterocycles as hepatoprotectants : part I” (1994)
